Experimental data as given in ChEMBL document CHEMBL1138410, “SAR studies of 3-arylpropionic acids as potent and selective agonists of sphingosine-1-phosphate receptor-1 (S1P1) with enhanced pharmacokinetic properties” (Bioorg Med Chem Lett, 2007).
Several values for one entry are separate records, joined by “and”; a condition that tells them apart may be missing. Identical values can stand only once.

How the values were obtained:
[1] = molecular target: Sphingosine 1-phosphate receptor 1 (Homo sapiens, UniProt P21453); assay: […] of [35S]GTPgammaS from human S1P1 receptor expressed in CHO cells; type: functional, cell-based
Sphingosine 1-phosphate receptor 1, sequence (P21453 whole entry): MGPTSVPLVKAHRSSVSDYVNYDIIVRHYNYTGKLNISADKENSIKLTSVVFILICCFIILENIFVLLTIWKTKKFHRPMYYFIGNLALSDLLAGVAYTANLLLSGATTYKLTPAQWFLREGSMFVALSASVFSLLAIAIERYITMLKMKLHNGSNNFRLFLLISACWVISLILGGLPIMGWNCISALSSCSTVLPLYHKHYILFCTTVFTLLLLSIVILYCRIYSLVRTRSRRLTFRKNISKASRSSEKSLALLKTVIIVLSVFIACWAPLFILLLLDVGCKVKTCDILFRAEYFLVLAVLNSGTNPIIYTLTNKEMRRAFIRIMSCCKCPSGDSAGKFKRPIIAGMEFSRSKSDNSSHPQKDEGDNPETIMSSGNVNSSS

Mus musculus = assay: Effect on peripheral lymphocyte lowering in orally dosed mouse; type: functional
[2] = molecular target: Sphingosine 1-phosphate receptor 2 (Homo sapiens, UniProt O95136); assay: Displacement of [33P]S1P from human S1P2 receptor expressed in CHO cells; type: cell-based
Sphingosine 1-phosphate receptor 2, sequence (O95136 whole entry): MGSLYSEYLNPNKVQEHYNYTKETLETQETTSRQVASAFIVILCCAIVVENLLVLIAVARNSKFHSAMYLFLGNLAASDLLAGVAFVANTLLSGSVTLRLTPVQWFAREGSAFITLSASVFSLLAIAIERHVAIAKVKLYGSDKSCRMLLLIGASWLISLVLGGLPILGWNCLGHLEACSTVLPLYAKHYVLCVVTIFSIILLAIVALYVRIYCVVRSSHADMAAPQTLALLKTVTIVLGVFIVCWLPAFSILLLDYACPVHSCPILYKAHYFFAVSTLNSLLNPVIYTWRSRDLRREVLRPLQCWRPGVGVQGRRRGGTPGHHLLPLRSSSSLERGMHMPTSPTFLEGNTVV

[3] = molecular target: T1, Sphingosine 1-phosphate receptor 4 (Homo sapiens, UniProt O95977); assay: Displacement of [33P]S1P from human S1P4 receptor expressed in CHO cells; type: cell-based
T1 sequence (O95977 whole entry): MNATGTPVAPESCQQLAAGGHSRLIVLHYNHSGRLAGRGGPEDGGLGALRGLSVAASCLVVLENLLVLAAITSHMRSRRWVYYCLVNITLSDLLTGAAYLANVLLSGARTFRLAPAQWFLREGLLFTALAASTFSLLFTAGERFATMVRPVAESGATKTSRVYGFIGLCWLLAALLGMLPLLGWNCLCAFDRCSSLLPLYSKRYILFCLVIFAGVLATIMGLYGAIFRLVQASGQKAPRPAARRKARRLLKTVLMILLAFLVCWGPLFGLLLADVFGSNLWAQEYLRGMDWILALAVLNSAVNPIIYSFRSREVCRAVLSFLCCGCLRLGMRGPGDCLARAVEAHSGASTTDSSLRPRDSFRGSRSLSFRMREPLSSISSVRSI

[4] = molecular target: Sphingosine 1-phosphate receptor 3 (Homo sapiens, UniProt Q99500); assay: […] of [35S]GTP-gamma-S from human S1P3 receptor expressed in CHO cells; type: functional, cell-based
Sphingosine 1-phosphate receptor 3, sequence (Q99500 whole entry): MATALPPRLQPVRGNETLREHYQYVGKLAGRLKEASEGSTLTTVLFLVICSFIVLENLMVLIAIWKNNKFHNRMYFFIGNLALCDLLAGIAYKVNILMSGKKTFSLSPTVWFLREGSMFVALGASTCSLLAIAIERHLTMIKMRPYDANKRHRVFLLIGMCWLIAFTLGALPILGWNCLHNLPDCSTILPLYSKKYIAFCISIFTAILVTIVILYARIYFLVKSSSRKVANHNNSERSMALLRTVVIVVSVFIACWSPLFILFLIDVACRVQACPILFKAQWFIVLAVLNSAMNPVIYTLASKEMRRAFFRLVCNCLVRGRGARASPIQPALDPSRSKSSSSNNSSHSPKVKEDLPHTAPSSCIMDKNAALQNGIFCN

[5] = molecular target: Sphingosine 1-phosphate receptor 5 (Homo sapiens, UniProt Q9H228); assay: […] of [35S]GTP-gamma-S from human S1P5 receptor expressed in CHO cells; type: functional, cell-based
Sphingosine 1-phosphate receptor 5, sequence (Q9H228 whole entry): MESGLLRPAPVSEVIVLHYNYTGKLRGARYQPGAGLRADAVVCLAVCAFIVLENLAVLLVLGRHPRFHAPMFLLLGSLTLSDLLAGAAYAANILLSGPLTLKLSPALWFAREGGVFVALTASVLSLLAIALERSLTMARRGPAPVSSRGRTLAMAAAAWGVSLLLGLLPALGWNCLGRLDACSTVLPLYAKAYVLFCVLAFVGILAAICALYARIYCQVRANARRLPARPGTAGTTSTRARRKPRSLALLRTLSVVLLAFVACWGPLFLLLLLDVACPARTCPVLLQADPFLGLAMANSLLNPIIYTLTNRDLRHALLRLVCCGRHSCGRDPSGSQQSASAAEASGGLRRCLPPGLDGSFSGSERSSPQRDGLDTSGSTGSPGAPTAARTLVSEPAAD

[6] = Plasma clearance in Sprague-Dawley rat at 1.0 mg/kg, iv or 2.0 mg/kg, po; type: ADME, organism-based
[7] = (§1) Volume of distribution at steady state in Sprague-Dawley rat at 1.0 mg/kg, iv or 2.0 mg/kg, po; type: ADME, organism-based; conditions: Sprague-Dawley, in vivo, read-out: Vdss
[8] = (§2) Half life in Sprague-Dawley rat at 1.0 mg/kg, iv or 2.0 mg/kg, po; type: ADME, organism-based; conditions: Sprague-Dawley, in vivo
[9] = (§3) Bioavailability in Sprague-Dawley rat at 2.0 mg/kg, po; type: ADME, organism-based; conditions: Sprague-Dawley, in vivo
Rattus norvegicus [10] = assay: as §1; type: ADME, organism-based; conditions: in vivo
Rattus norvegicus [11] = assay: as §2; type: ADME, organism-based; conditions: in vivo
Rattus norvegicus [12] = assay: as §3; type: ADME, organism-based; conditions: in vivo
[13] = Mus musculus, po, read-out: ED50

SMILES | EC50 [1] | ED50 (Mus musculus; [13]) [mg/kg] | IC50 [2] [µM] | IC50 [3] [µM] | EC50 [4] | EC50 [5] [nM] | clearance [6] [mL/min/kg] | Vd [7] [L/kg] | half-life [8] [min] | bioavailability [9] [%] | ED50 (Mus musculus) [mg/kg] | Vdss (Rattus norvegicus [10]) | t1/2 (Rattus norvegicus [11]) [h] | F (Rattus norvegicus [12]) [%]
Cc1cc(CCC(=O)O)ccc1-c1noc(-c2ccc(OC(C)C)c(C(F)(F)F)c2)n1 | 0.08 nM | 0.3 | > 10 | > 10 |  |  |  |  |  |  |  |  |  | 
Cc1cc(CCC(=O)O)ccc1-c1noc(-c2ccc(OC(C)C)c(C#N)c2)n1 | 0.08 nM | 0.1 | > 10 | > 10 |  |  |  |  |  |  |  |  |  | 
Cc1cc(CC(C)C(=O)O)ccc1-c1noc(-c2ccc(OC(C)C)c(C(F)(F)F)c2)n1 (stereo not drawn) | 0.3 nM | 0.1 | > 10 | > 10 | 400 nM | 9.9 | 7 | 1.5 | 102 | 82 |  |  |  | 
Cc1nc(CCC(=O)O)ccc1-c1noc(-c2ccc(OC(C)C)c(C#N)c2)n1 | 0.44 nM | 0.2 | > 10 | > 10 | 2760 nM | 28.6 | 1.2 | 0.3 | 144 | 93 |  |  |  | 
Cc1cc([C@H]2C[C@H]2C(=O)O)ccc1-c1noc(-c2ccc(OC(C)C)c(C#N)c2)n1 | 0.8 nM | 0.7 | > 10 | > 10 | > 1000 nM | 37.7 | 1.2 | 0.7 | 444 | 89 |  |  |  | 
Cc1cc([C@@H]2C[C@H]2C(=O)O)ccc1-c1noc(-c2ccc(OC(C)C)c(C#N)c2)n1 | 0.93 nM and 0.31 nM | 0.3 | > 10 | > 10 | 2660 nM and 2600 nM and > 10000 nM |  |  |  | 294 | 84 | 0.2 | 1 L/kg and 0.4 L/kg | 5.9 | 90
Cc1cc(C(C)CC(=O)O)ccc1-c1noc(-c2ccc(OC(C)C)c(C(F)(F)F)c2)n1 (stereo not drawn) | 0.12 nM | 0.1 | > 10 | > 10 | 184 nM | 3.9 | 2.9 | 0.6 | 186 | 100 |  |  |  | 
Cc1cc([C@@H]2C[C@H]2C(=O)O)ccc1-c1noc(-c2ccc(OC(C)C)c(C(F)(F)F)c2)n1 |  | 0.2 | > 10 | > 10 | 123 nM | 5.1 | 2.4 | 1.1 | 378 | 88 |  |  |  | 
